Source: patent publication US9861606B2, “Therapeutic for treating inflammatory lung disorders” (University College Cardiff Consultants Limited, priority 2012, dated 2018)
Values joined by “and” are separate entries in the source; they are usually repeats but may differ in a detail not shown here. Identical values can stand only once. “Also recorded” adds a separate entry of the source.

Legend:
human CaSR = target: T1, human CaSR (Homo sapiens, UniProt P41180); assay: Intracellular Ca2+ (fura-2, F/F0) in HEK293 cells stably expressing human CaSR; format: cell-based; details: 100 nM calcilytic, HEK-CaSR
T1 construct: expressed in transfected cells; control HEK-0 with empty vector
T1 sequence (P41180 20-1078): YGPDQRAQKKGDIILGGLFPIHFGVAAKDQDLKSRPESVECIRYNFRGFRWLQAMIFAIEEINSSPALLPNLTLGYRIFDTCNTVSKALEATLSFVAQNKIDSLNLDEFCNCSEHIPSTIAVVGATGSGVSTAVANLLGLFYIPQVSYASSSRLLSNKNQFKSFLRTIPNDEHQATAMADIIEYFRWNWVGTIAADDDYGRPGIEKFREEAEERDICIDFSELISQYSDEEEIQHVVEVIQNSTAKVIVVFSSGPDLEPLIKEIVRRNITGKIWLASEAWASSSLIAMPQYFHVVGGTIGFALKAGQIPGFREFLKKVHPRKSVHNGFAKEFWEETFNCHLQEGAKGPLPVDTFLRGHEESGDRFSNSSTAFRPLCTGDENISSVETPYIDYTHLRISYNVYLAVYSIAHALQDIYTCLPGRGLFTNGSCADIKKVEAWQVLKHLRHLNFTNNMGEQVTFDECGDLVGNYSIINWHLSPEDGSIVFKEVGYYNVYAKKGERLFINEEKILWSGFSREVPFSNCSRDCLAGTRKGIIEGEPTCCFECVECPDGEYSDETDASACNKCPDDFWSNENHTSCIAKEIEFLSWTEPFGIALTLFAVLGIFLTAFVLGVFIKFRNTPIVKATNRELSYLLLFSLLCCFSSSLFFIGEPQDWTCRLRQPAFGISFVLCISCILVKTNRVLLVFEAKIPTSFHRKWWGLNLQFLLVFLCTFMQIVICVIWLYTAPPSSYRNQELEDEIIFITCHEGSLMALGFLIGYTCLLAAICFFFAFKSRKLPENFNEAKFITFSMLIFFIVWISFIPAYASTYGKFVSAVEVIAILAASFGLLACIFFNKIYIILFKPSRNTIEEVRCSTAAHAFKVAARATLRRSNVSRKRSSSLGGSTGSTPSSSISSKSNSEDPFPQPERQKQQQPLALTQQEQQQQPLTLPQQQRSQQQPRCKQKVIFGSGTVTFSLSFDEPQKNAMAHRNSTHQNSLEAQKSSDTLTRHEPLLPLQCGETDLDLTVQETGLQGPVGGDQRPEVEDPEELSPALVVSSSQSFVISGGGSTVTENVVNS
Method: The structurally unrelated calcilytic NPS2143 also prevents spermine-induced CaSR activation (D). […] Note that ECP serum concentrations in asthmatic subjects are believed to be 30 μg/ml. n=121-487 cells, 3-9 experiments. Data are mean±SEM. Where differences are significant, they are shown above the bars. FIG. 6. Ca^2+o activates the CaSR, an effect which can be prevented by the calcilytic NPS89636. HEK293 cells stably expressing the human CaSR (HEK-CaSR) or transfected with empty vector (HEK-0) were loaded with 4 μM fura-2 AM and exposed to 5 mM Ca^2+o in the absence or presence of the calcilytic, NPS89636 (100 nM). Data are from >3 experiments and 121-386 cells. Significant differences are shown above the bars. […] The ability of a structurally unrelated calcilytic, NPS2143 (1-10 μM), was also tested on spermine-induced Ca^2+i mobilisation in HEK-CaSR. Ca^2+i release was measured as peak/baseline fluorescence (F/F0). Note that ECP serum concentrations in asthmatic subjects increase with disease severity and are believed to reach 30 μg/ml.

BalbC mice = assay: Bronchial hyper-reactivity in ovalbumin-sensitised, ovalbumin-challenged mouse model of asthma; format: in vivo; details: nebulised 3 μM; methacholine up to and including 30 mg/ml
Method: FIG. 13. The calcilytic, NPS89636, prevents ovalbumin-induced BHR in methacholine challenged mice. Mice were sensitised on days 0 and 5 by an i.p. injection of 100 microgram/mouse of ovalbumin (OVA) and 50 mg/mouse aluminium hydroxide in PBS. Fourteen days after the last injection, mice were challenged by inhalation of a 0.5% OVA aerosol in PBS twice on the same day, 4 h apart. Mice were treated with nebulised NPS89636 (3 micromolar) or vehicle (0.3% DMSO) one hour before and three hours after the last OVA exposure. Measurements of BHR following methacholine challenge were taken by plethysmography 24 hours before and after the last OVA inhalation challenge.
Penh was recorded by plethysmography during methacholine challenge, as above (Penh before treatment). 24 hours later, the mice were challenged with 0.5% nebulised OVA (in PBS w/v) in the absence or presence of nebulised NPS89636 (or 0.3% DMSO vehicle) by inhalation. The time-course of this challenge protocol consisted of: […]
Male BalbC mice (˜25 g) purchased from Harlan and allowed to acclimatise for 1 week prior to experiment. […] Thirteen days after the last injection, Penh was recorded by plethysmography during methacholine challenge, as described above (Penh before treatment). […]
Bronchoalveolar lavage was performed using three times 1 ml of PBS and the BALF was collected for the quantification of inflammatory cells. […]

[1] = system: mouse intralobular bronchi; assay: Wire myography: effect of calcilytic on ACh-precontracted mouse intralobular bronchi; details: 300 nM or 3 micromolar; ACh 1 micromolar precontraction; WT mice
Method: Second/third order intralobular bronchi were dissected from the lung left lobe of WT or CaSR KO mice, mounted in small vessel myograph. Bronchi were gradually stretched to reach 2 mN of passive tension. After 30 min of equilibration time, the reactivity of the bronchi was tested by addition of 40 mM KCl to the bath. […] Data are shown as mean±SEM percentage change from baseline. […] Bronchi were left to settle at 37° C. for 30 min, then gradually stretched to reach 2 mN of passive tension. After 30 min of equilibration time, the reactivity of the bronchi was tested by addition of 40 mM KCl to the bath.

[2] = Plasma ionised Ca2+ in BalbC mice after nebulised calcilytic treatment; format: in vivo, mouse
Method: Table 1. […] At the end of the experiment, bloods were collected via opening the carotid artery. Bloods were allowed to clot for 2-3 hours and spun down at 3000 g for 10 min at 4° C. Collected samples were analysed for measurements of Ca^2+o (performed by the Biochemistry department, University Hospital of Wales). […] Accordingly, the treatment is not detrimental in mammals.

With CCc1ccc(CC(C)(C)NCC(O)COc2cc(-c3ccc(C(=O)O)cc3)ccc2C#N)c(F)c1.Cl (stereo in doubt) [NPS89636, (S)-4′-cyano-3′-[3-[2-(4-ethyl-2-fluorophenyl)-1,1-dimethylethylamino]-2-hydroxy-propoxy]-biphenyl-4-carboxylic acid hydrochloride] the “Effect of calcilytic on polycation-evoked Ca2+i release (F/F0)” value (human CaSR; 300 nM poly-L-arginine, 1 mM spermine or 10 μg/ml ECP, hydrochloride) was “completely eliminated; also recorded: significantly reduced”, the “Effect of calcilytic on Ca2+i increase evoked by 5 mM Ca2+o” value (human CaSR) was “blocked” and the “Effect on methacholine-induced BHR in OVA-sensitised, OVA-challenged mice” value (BalbC mice) was “completely abolished”. The “Relaxation of acetylcholine-preconstricted intralobular bronchi” value [1] was “mild relaxation”, the “Plasma ionised Ca++, Treatment (1 hour), individual animal” value ([2]; 1 hour after nebulised calcilytic, single animals, hydrochloride) was 0.69 mM/L and 0.88 mM/L and 0.95 mM/L and the “Plasma ionised Ca++, Treatment (1 hour), Average” value ([2]; 1 hour, average of 3) was 0.84 mM/L. For the same compound, the “Plasma ionised Ca++, Treatment (4 hours), individual animal” value ([2]; 4 hours after nebulised calcilytic, single animals, hydrochloride) was 0.98 mM/L and 0.94 mM/L and 0.96 mM/L, the “Plasma ionised Ca++, Treatment (4 hours), Average” value ([2]; 4 hours, average of 3) was 0.96 mM/L and the “Plasma ionised Ca++, Treatment (24 hours), individual animal” value ([2]; 24 hours after nebulised calcilytic, single animals, hydrochloride) was 1.09 mM/L and 1.1 mM/L and 0.93 mM/L. The “Plasma ionised Ca++, Treatment (24 hours), Average” value ([2]; 24 hours, average of 3) was 1.04 mM/L.
